target: T1, recombinant HSF1 DNA-binding domain (DBD) (Homo sapiens, UniProt Q00613); assay: Differential Scanning Fluorimetry (DSF), HSF1 DBD melting temperature; settings: Table 1; 5 μM HSF1 DBD, 25PM Compound; positive = stabilizes, negative = destabilizes HSF1
T1 sequence (Q00613 15-120): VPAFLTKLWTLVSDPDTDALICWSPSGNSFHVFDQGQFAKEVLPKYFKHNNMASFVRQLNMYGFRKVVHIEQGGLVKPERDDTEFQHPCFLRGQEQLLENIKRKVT

Point of comparison: Cc1cc([N+](=O)[O-])cc([N+](=O)[O-])c1Sc1ncc2ccccn12 [Compound 0093], ΔTm at 25 µM -3.44 °C. Against it:
- O=C(O)C1=CC(=C(c2ccc(O)c(C(=O)O)c2)c2ccc(O)c(C(=O)O)c2)C=CC1=O [Compound 0086] — lower, -11.5 °C
- Cn1ncc(S(=O)(=O)Cc2ccccc2)c(Cl)c1=O [Compound 0014] — lower, -4.56 °C
- CC(C)(C)c1ccc(-c2nnc(SCC(=O)NCc3ccccc3)n2-c2ccccc2)cc1 [Compound 0084] — lower, -8.96 °C
- O=C(Nc1cccc(Cl)c1)Nc1cccc([N+](=O)[O-])c1 [Compound 0078, 1-(3-chlorophenyl)-3-(3-nitrophenyl)urea] — higher, 2.25 °C
- O=C(Nc1cccc(F)c1)Nc1ccc(Cl)c([N+](=O)[O-])c1 [Compound 0020, 1-(4-chloro-3-nitrophenyl)-3-(3-fluorophenyl)urea] — higher, 5.2 °C
- Cc1ccc(C(=O)/C=C(\c2ccccc2)N2CCCCC2)cc1 [Compound 0071] — lower, -6.24 °C
- O=C(Nc1cccc(C(F)(F)F)c1)Nc1ccc2nonc2c1 [Compound 0035] — higher, 6.44 °C
- O=C(CSc1nnc(-c2ccncc2)n1-c1ccccc1)N/N=C/c1cccnc1 [Compound 0029] — lower, -8.96 °C
- COc1cc(C(=O)Oc2c(Cl)cc(Cl)cc2/C=N\c2cccc(C(F)(F)F)c2)cc(OC)c1OC [Compound 0070] — lower, -7.24 °C
- CCOC(=O)c1cc(C#N)c(Sc2nnc(SC)s2)nc1C(F)(F)F [Compound 0055] — lower, -9.69 °C
- N=C(N)NC(=O)c1nc(Cl)c(N)nc1N [Compound 0053] — lower, -10.1 °C
- N#CN=C(Nc1ccc(F)cc1)Nc1ccc(Cl)c([N+](=O)[O-])c1 [Compound 0047, 1-(4-chloro-3-nitro-phenyl)-2-cyano-3-(4-fluorophenyl)guanidine] — higher, 0.75 °C
- O=C(CSc1nnc(-c2ccccc2)n1-c1ccc(F)cc1)NCc1ccccc1 [Compound 0057] — lower, -10.5 °C

same assay, conditions: Table 3; 5 μM HSF1 DBD, 25PM Compound; positive = stabilizes, negative = destabilizes HSF1

Point of comparison: O=C(Nc1ccc(F)c(F)c1)Nc1ccc(Cl)c([N+](=O)[O-])c1 [Compound 034, 1-(4-chloro-3-nitrophenyl)-3-(3,4-difluorophenyl)urea], ΔTm at 25 µM 5.7 °C. Against it:
- COc1ccc(NC(=O)Nc2ccc(C)cc2)cc1 [Compound 011, 1-(4-methoxyphenyl)-3-(p-tolyl)urea] — lower, 2.61 °C
- O=C(Nc1ccc(F)cc1)Nc1ccc(Cl)c([N+](=O)[O-])c1 [Compound 017, 1-(4-chloro-3-nitrophenyl)-3-(4-fluorophenyl)urea] — lower, 3 °C
- O=C(Nc1ccc(F)cc1)Nc1ccc(Br)c(C(F)(F)F)c1 [Compound 005, 1-(4-bromo-3-(trifluoromethyl)phenyl)-3-(4-fluorophenyl)urea] — lower, 5.1 °C
- O=C(Nc1ccc(F)cc1)Nc1ccc(Cl)cc1 [Compound 096, 1-(4-chlorophenyl)-3-(4-fluorophenyl)urea] — lower, 2.61 °C
- O=S1(=O)N=C(Nc2ccc(F)cc2)C(Nc2ccc(Cl)c(C(F)(F)F)c2)=N1 [Compound 033, N3-[4-chloro-3-(trifluoromethyl)phenyl]-N4-(4-fluorophenyl)-1,1-dioxo-1,2,5-thiadiazole-3,4-diamine] — lower, 1.9 °C
- O=c1c(Nc2ccc(F)cc2)c(Nc2ccc(Cl)c(C(F)(F)F)c2)c1=O [Compound 064, 3-[4-chloro-3-(trifluoromethyl)anilino]-4-(4-fluoroanilino)cyclobut-3-ene-1,2-dione] — lower, 2.3 °C
- N#CN=C(Nc1ccc(F)cc1)Nc1ccc(Cl)c([N+](=O)[O-])c1 [Compound 047, 1-(4-chloro-3-nitro-phenyl)-2-cyano-3-(4-fluorophenyl)guanidine] — lower, 0.75 °C
- O=C(Nc1ccc(F)cc1)Nc1ccc(Cl)nc1 [Compound 090, 1-(6-chloro-3-pyridyl)-3-(4-fluorophenyl) urea] — lower, 0.67 °C
- O=C(Nc1ccc(Cl)cc1)Nc1ccc(Cl)c([N+](=O)[O-])c1 [Compound 048, 1-(4-chloro-3-nitrophenyl)-3-(4-chlorophenyl)urea] — lower, 2.61 °C
